Experiments:
[1] = tested on: isolated rat brain microsomes; assay: In vitro toxicity (prooxidant effect, MDA) on isolated rat brain microsomes; format: biochemical; settings: 100 µM, vs untreated control microsomes
Experimental: (§1) The brain was homogenized in 9 volumes of 0.1 M Tris buffer containing 0.1 mM dithiothreitol, 0.1 mM phenylmethylsulfonyl fluoride, 0.2 mM EDTA, 1.15% KCl, and 20% (v/v) glycerol (pH 7.4). The resulting homogenate was centrifuged twice at 17,000× g for 30 min. The supernatants from both centrifugation steps were combined and centrifuged twice at 100,000× g for 1 h. The pellet was then frozen in 0.1 M Tris buffer.
(§2) After incubating the microsomes with the substances and toxic agent, the reaction was stopped by adding 0.5 mL of 20% trichloroacetic acid, followed by 0.5 mL of 0.67% thiobarbituric acid. The reaction formed a colored complex between the malondialdehyde produced and thiobarbituric acid. The amount of malondialdehyde (MDA) was measured spectrophotometrically at 535 nm, using a molar extinction coefficient of 1.56 × 10^5 M^−1 cm^−1 for the calculation.

[2] = tested on: SH-SY5Y cells; assay: In vitro cytotoxicity in neuroblastoma cell line SH-SY5Y (MTT); format: cell-based; settings: Homo sapiens, 24 h treatment, 0.1-500 µM, read-out: IC50 (cell viability)
Experimental: (§3) The neuroblastoma cell line SH-SY5Y was acquired from Sigma-Aldrich (ACACC cell lines). They were cultured in Roswell Park Memorial Institute 1640 (RPMI) cell medium supplemented with 10% heat-inactivated fetal bovine serum (FBS) and 2 mM L-glutamine. The cells were maintained at 37 °C in an atmosphere containing 5% CO2 in a humidified incubator.
SH-SY5Y cells were seeded in 96-well plates at a density of 2.5 × 10^4 cells/well. The plates were incubated for 24 h to ensure proper attachment. Cell viability assays were performed after treatment with the test compounds at concentrations of 0.1, 1, 5, 10, 50, 100, 250, and 500 μM, according to the protocol of Mosmann (1984). Each compound was tested in 6 wells. Following the treatment for 24 h, a solution of (3-(4,5-dimethylthiazol-2-yl)-2,5-diphenyltetrazolium bromide) MTT at a concentration of 5 mg/mL was prepared and briefly vortexed. The culture medium was aspirated and replaced with 100 μL of MTT solution in each well. The plates were then incubated for 3 h. After incubation, the formazan crystals were dissolved using 100 μL dimethylsulphoxide (DMSO), and the absorbance was measured at 570 nm (690 nm for the background absorbance) using a multiple reader Synergy 2 (BioTek Instruments, Inc., Highland Park, Winooski, VT, USA).

[3] = tested on: isolated rat brain synaptosomes; assay: 6-OHDA-induced neurotoxicity in isolated rat brain synaptosomes; format: cell-based; settings: for preserved GSH levels in synaptosomes / viability at 100 µM: 100 µM compound + 150 µM 6-OHDA; for preserved GSH levels in synaptosomes: compared to the 6-OHDA group; for viability at 100 µM: Rattus norvegicus, compared to 6-OHDA alone, read-out: preserved synaptosomal viability
Experimental: Synaptosomes and mitochondria were isolated by subcellular fractionation using a Percoll gradient, following the method described by Tauplin et al. and Sims et al.. Brain homogenate was prepared and centrifuged at 1000× g for 5 min at 4 °C. The supernatants were collected and centrifuged again at 1000× g for 5 min at 4 °C. The supernatants from both centrifugations were combined and distributed into four tubes. These tubes were then centrifuged at 10,000× g for 20 min at 4 °C three times. The final two centrifugations were performed to purify the synaptosomes and mitochondria.
The isolation process involves using a colloidal silicon solution, specifically Percoll. First, a 90% stock solution of Percoll is prepared. Next, Percoll solutions at concentrations of 16% and 10% are prepared, with 4 mL of each solution placed into six separate test tubes. To the precipitate from the final centrifugation step, 7.5% Percoll (derived from the 90% stock solution) is added. The tubes are then centrifuged at 15,000× g for 20 min at 4 °C. This procedure effectively isolates synaptosomes and mitochondria. After centrifugation, three distinct layers form in the tubes. The bottom layer contains mitochondria, the top layer contains lipids, and the middle layer—located at the 16% to 10% Percoll interface—contains synaptosomes. The corresponding layer from each tube is carefully removed using a glass Pasteur pipette and combined into one. Buffer B with glucose is then added to the mixture, which is centrifuged at 10,000 × g for 20 min at 4 °C, allowing the isolation buffer to be exchanged with the incubation buffer. After centrifugation, the pellet containing the synaptosomes is resuspended in Buffer B with glucose. Synaptosomes and mitochondria were incubated with the test substances at a concentration of 100 µM for 1 h.
This in vitro model mimics the neurodegenerative processes primarily observed in Parkinson’s disease (PD). The metabolism of 6-OHDA produces reactive quinones (p-quinone), which, in turn, generate reactive oxygen species (ROS). These reactive metabolites and ROS cause damage to both pre- and post-synaptic membranes, ultimately leading to neuronal cell damage. In this study, synaptosomes were incubated with 6-OHDA (150 μM) for 1 h to establish the model.
After a 1-h incubation with the substances and toxic agent, synaptosomes were centrifuged in a microcentrifuge at 15,000× g for 1 min. The pellet was gently mixed with Buffer B + glucose, and the supernatant containing 6-OHDA was discarded to prevent oxidation of 3-(4,5-dimethylthiazol-2-yl)-2,5-diphenyltetrazolium bromide, a tetrazole (MTT). The synaptosomes were centrifuged again at 15,000× g for 1 min. After the second wash, Buffer B + glucose was added to the pellet. Then, 60 µL of MTT solution was added to the “washed” synaptosomes. The plates were incubated with the MTT solution at 37 °C for 10 min. After incubation, the samples were centrifuged at 15,000× g for 2 min. The excess liquid was removed, and a DMSO solution was used to dissolve the formed formazan crystals. The amount of formazan was then measured spectrophotometrically at λ = 580 nm.
Following protein precipitation with trichloroacetic acid, the thiol groups in the supernatant were measured using DTNB, which produces a yellow-colored compound that absorbs light at λ = 412 nm. After incubation, synaptosomes were centrifuged at 4000× g for 3 min. The supernatant was removed, and the pellet was collected for GSH determination. The pellet was treated with 5% trichloroacetic acid and left on ice for 10 min. It was then centrifuged at 8000× g for 10 min at 2 °C. The supernatant was collected for GSH determination and frozen at −20 °C. Immediately before measurement, the samples were neutralized with 5N NaOH [50].

[4] = tested on: isolated rat brain microsomes; assay: Non-enzyme (Fe2+/AA) lipid peroxidation in isolated rat brain microsomes; format: biochemical; settings: 100 µM compound co-incubated with Fe2+/AA, compared to the Fe2+/AA group
Experimental: as §1
Non-enzyme-induced lipid peroxidation was induced with 20 μM ferrous sulfate solution and 0.5 mM ascorbic acid solution [54].
as §2

[5] = tested on: SH-SY5Y cells; assay: H2O2-induced oxidative stress model in neuroblastoma SH-SY5Y cells; format: cell-based, human; settings: H2O2 1 mM 10 min
Experimental: as §3
In the oxidative stress model, SH-SY5Y cells (3.5 × 10^4 cells/well) were exposed to 1 mM H2O2 for 10 min. The cells were pre-treated for 1.5 h with the test compounds (0.1, 1, 5, 10, 20, and 50 µM). Subsequently, a H2O2 solution was added. Cell viability was assessed after 24 h by the MTT-dye reduction assay, as described above.
The results of the experiments performed on isolated brain synaptosomes, mitochondria, and microsomes were statistically processed using the ‘MEDCALC’ program using the non-parametric Mann–Whitney method at significance levels of p < 0.05, p < 0.01, and p < 0.001. Statistical analyses with the SH-SY5Y cell line were conducted on GraphPad Prism software (version 8, GraphPad Software, La Jolla, CA, USA). The significance of the data was assessed using one-way analysis of variance (ANOVA), followed by Dunnet’s test for post hoc multiple comparisons, to evaluate statistical differences. Values of * p ≤ 0.05, ** p ≤ 0.01, and *** p ≤ 0.001 were considered statistically significant. Cytoprotecting data were normalized as a percentage of the H2O2-treated control (defined as 0% viability). Statistical analysis was performed to compare the different groups of compounds. Statistical significance was determined using the Holm–Sidak method, with alpha = 0.05. Each row was analyzed individually, without assuming a consistent SD.

[6] = tested on: isolated brain mitochondria; assay: t-BuOOH-induced oxidative stress in brain mitochondria; settings: 100 µM compound + t-BuOOH, compared to t-BuOOH alone
[7] = 150 µM applied alone, vs untreated synaptosomes

Row | Compound | increase in MDA formation in microsomes [1] | IC50 [2] | preserved GSH levels in synaptosomes [3] | viability at 100 µM [3] | decrease of MDA production in microsomes [4] | protective effect (neuroprotection) ([5]; 5 µM pre-treatment 1.5 h) | protective effect (neuroprotection) ([5]; 10 µM pre-treatment 1.5 h) | reduction of MDA production in mitochondria [6] | decrease in synaptosomal viability by toxic agent alone [3, 7] | reduction in GSH levels by toxic agent alone [3, 7] | protective effect (neuroprotection) ([5]; 20 µM pre-treatment 1.5 h) | protective effect (neuroprotection) ([5]; 50 µM pre-treatment 1.5 h)
1 | CCOC(=O)c1cc(-c2ccc(Br)cc2)n(C(Cc2c[nH]c3ccccc23)C(=O)N/N=C/c2c3ccccc3cc3ccccc23)c1C (centres unmarked) [compound 15] | 40% | > 500 µM | 70% | 64% | 36% |  |  |  |  |  |  | 
2 | CCOC(=O)c1cc(-c2ccc(Br)cc2)n(C(Cc2c[nH]c3ccccc23)C(=O)N/N=C/c2ccc(NC(C)=O)cc2)c1C (centres unmarked) [compound 9] | 38% | > 500 µM | 60% | 78% | 26% | 47% | 52% |  |  |  |  | 
3 | CCOC(=O)c1cc(-c2ccc(Br)cc2)n(C(Cc2c[nH]c3ccccc23)C(=O)N/N=C/c2ccc([N+](=O)[O-])o2)c1C (centres unmarked) [compound 11] | 41% | 264 µM | 60% | 69% | 35% |  |  | 41% |  |  |  | 
4 | CCOC(=O)c1cc(-c2ccc(Br)cc2)n(C(Cc2c[nH]c3ccccc23)C(=O)N/N=C/c2cc(OC)c(O)c(OC)c2)c1C (centres unmarked) [compound 7] | 29% | > 500 µM | 70% | 73% | 38% |  |  |  |  |  |  | 
5 | NCCc1cc(O)c(O)cc1O [6-OHDA, 6-hydroxydopamine, reference compound] |  |  |  |  |  |  |  |  | 55% | 50% |  | 
6 | CCOC(=O)c1cc(-c2ccc(Br)cc2)n(C(Cc2c[nH]c3ccccc23)C(=O)N/N=C/c2ccccc2O)c1C (centres unmarked) [compound 12] | 35% | > 500 µM | 80% | 82% | 40% | 48% | 53% |  |  |  | 50% | 32%
7 | CCOC(=O)c1cc(-c2ccc(Br)cc2)n(C(Cc2c[nH]c3ccccc23)C(=O)N/N=C/c2ccc3ccccc3c2)c1C (centres unmarked) [compound 14] | 39% | > 500 µM | 70% | 60% | 37% | 33% | 51% |  |  |  |  | 
